Laboratory results published in publication PMC10410612 (2023).

How the values were obtained:
[1] = tested on: poly(rA)·poly(rU) (RNA, polymer) A/U; assay: ethidium bromide displacement fluorescence; settings: NaCac 2.5 mM; pH 7.0; tracer ethidium bromide; some interaction
[2] = tested on: poly(rU)*poly(rA)·poly(rU) (RNA, polymer) U/A/U; assay: UV-vis absorbance titration, HypSpec2014 fit; settings: NaCac 2.5 mM; pH 7.0, 25.0 °C; per base triplet, site size n = 1
[3] = tested on: poly(rU)*poly(rA)·poly(rU) (RNA, polymer) U/A/U; assay: UV melting; settings: NaCac 2.5 mM; pH 7.0; 1:1 ratio complex/polynucleotide; free Tm 46.9 °C; per base
[4] = tested on: poly(rA)·poly(rU) (RNA, polymer) A/U; assay: UV melting; settings: NaCac 2.5 mM; pH 7.0; 1:1 ratio complex/polynucleotide; free Tm 47.9 °C; per base
[5] = tested on: poly(rA)·poly(rU) (RNA, polymer) A/U; assay: UV-vis absorbance titration, HypSpec2014 fit; settings: NaCac 2.5 mM; pH 7.0, 25.0 °C; per base pair, site size n = 1

Question: For C=[C-]c1cccc(OC(=O)c2ccccc2OC(C)=O)c1.[C-]#[O+].[C-]#[O+].[C-]#[O+].[Ru+2].[Ru+2].c1cc[cH-]c1.c1cc[cH-]c1, which binding [1] is on record?
Answer: yes

Question: What about the K [2] of the same compound?
Answer: (3.1 ± 0.9) × 10^5

Question: And the ΔTm [3]?
Answer: 1.6 ± 0.5 °C

Question: And the ΔTm [4]?
Answer: -6.5 ± 0.9 °C

Question: What about the K [5] of the same compound?
Answer: (6.0 ± 0.9) × 10^5
